In patent US20100041699A1, “MICROCRYSTALLINE (5-FLUORO-2-METHYL-3-QUINOLIN-2-YLMETHYL-INDOL-1-YL) ACETIC ACID” (OXAGEN LIMITED, priority 2005, published 2010):

Columns and labels:
Type in all cases: physicochemical
[1] = Crystal sizes measured by laser diffraction; details: for Particle Diameter, 10% particles under given diameter / Particle Diameter, 50% particles under given diameter / Particle Diameter, 90% particles under given diameter: laser diffraction; for Particle Diameter, 10% particles under given diameter: 10% of particles under given diameter; for Particle Diameter, 50% particles under given diameter: 50% of particles under given diameter; for Particle Diameter, 90% particles under given diameter: 90% of particles under given diameter
Procedure: The sizes of the crystals of one batch of Product A ((5-fluoro-2-methyl-3-quinolin-2-ylmethylindo-1-yl)-acetic acid recrystallised from DMSO/water as described above in Example 1, step 4) and three batches of Product B ((5-fluoro-2-methyl-3-quinolin-2-ylmethylindo-1-yl)-acetic acid recrystallised from DMSO/water and then treated with potassium carbonate and citric acid as described above in Example 1, step 4a) were measured by laser diffraction and compared.

Solubility in solvents = details: in most solvents
pKa of the acid = test: pKa of the acid
Excerpt: The term “weak acid” as used in step (ii) of the method is a term known in the art, and means an acid that partially dissociates in an aqueous solution.

**Q.** For `Cc1c(Cc2ccc3ccccc3n2)c2cc(F)ccc2n1CC(=O)O` [Product A, (5-fluoro-2-methyl-3-quinolin-2-ylmethylindo-1-yl)-acetic acid], which “Particle Diameter, 10% particles under given diameter” value (“Particle Diameter, 10% particles” below) ([1]; listed as A) is on record?
**A.** 11.93 μm

**Q.** And the “Particle Diameter, 10% particles” value ([1]; listed as product A)?
**A.** less than 10 μm

**Q.** What about the “Particle Diameter, 50% particles under given diameter” value (from here on “Particle Diameter, 50% particles”) [1] of the same compound?
**A.** 30.13 μm

**Q.** And the “Particle Diameter, 90% particles under given diameter” value (“Particle Diameter, 90% particles” for short) ([1]; listed as A)?
**A.** 52.13 μm

**Q.** Which “Particle Diameter, 10% particles” value ([1]; listed as B (Batch 1)) does the source give for `Cc1c(Cc2ccc3ccccc3n2)c2cc(F)ccc2n1CC(=O)O` [Product B, (5-fluoro-2-methyl-3-quinolin-2-ylmethylindo-1-yl)-acetic acid] here?
**A.** 0.10 μm

**Q.** And the “Particle Diameter, 10% particles” value ([1]; listed as B (Batch 2))?
**A.** 0.20 μm

**Q.** What about the “Particle Diameter, 10% particles” value ([1]; listed as B (Batch 3)) of the same compound?
**A.** 0.11 μm

**Q.** What about the “Particle Diameter, 50% particles” value ([1]; listed as B (Batch 1)) of the same compound?
**A.** 0.27 μm

**Q.** And the “Particle Diameter, 50% particles” value ([1]; listed as B (Batch 2))?
**A.** 0.37 μm

**Q.** What about the “Particle Diameter, 50% particles” value ([1]; listed as B (Batch 3)) of the same compound?
**A.** 0.31 μm

**Q.** And the “Particle Diameter, 90% particles” value ([1]; listed as B (Batch 1))?
**A.** 0.92 μm

**Q.** What about the “Particle Diameter, 90% particles” value ([1]; listed as B (Batch 2)) of the same compound?
**A.** 0.80 μm

**Q.** And the “Particle Diameter, 90% particles” value ([1]; listed as B (Batch 3))?
**A.** 1.53 μm

**Q.** And the “Particle Diameter, 90% particles” value ([1]; listed as product B)?
**A.** less than 2 μm

**Q.** Which results are given for `Cc1c(Cc2ccc3ccccc3n2)c2cc(F)ccc2n1CC(=O)O` [(5-fluoro-2-methyl-3-quinolin-2-ylmethyl-indol-1-yl)-acetic acid]?
**A.** solubility (Solubility in solvents): sparingly soluble in most solvents; diameter of 90% of the crystals ([1]; recrystallised from DMSO/water): 50-70 μm; pKa (pKa of the acid): 2.8
